pIC50: −log10 of the molar value. Converted amounts (≈) assume the structure as drawn. Like-named read-outs stand apart in the source and are kept apart here.
Key:
[1] = Solubility in sodium phosphate buffer; type: physicochemical
[2] = biological target: T1, human sEH (Homo sapiens, UniProt P34913); assay: Determination of inhibitory potency; type: biochemical
T1 sequence (P34913 1-555): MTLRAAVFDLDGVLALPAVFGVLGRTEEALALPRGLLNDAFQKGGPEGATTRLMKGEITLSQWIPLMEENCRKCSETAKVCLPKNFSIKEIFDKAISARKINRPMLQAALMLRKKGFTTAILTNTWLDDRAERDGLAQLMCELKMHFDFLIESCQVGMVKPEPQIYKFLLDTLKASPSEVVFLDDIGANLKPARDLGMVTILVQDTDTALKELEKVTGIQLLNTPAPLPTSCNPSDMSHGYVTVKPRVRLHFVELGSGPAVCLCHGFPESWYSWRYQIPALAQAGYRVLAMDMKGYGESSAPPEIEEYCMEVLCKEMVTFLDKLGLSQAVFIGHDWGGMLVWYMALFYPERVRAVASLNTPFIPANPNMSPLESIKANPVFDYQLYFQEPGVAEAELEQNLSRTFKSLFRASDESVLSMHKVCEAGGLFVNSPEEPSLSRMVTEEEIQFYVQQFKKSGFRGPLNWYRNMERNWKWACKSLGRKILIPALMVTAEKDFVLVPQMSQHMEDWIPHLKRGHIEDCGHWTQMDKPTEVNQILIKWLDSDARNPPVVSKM

[3] = sodium phosphate buffer (pH 7.4, 0.1 M) containing 1% of DMSO
[4] = kinetic fluorescent assay, substrate 5 μM, human sEH 1 nM, means of three separate experiments
[5] = sodium phosphate buffer, pH 7.4, aqueous buffer

| SMILES | Solubility [1, 3] | pIC50 [2, 4] | Solubility [1, 5] | pIC50 [2] |
| --- | --- | --- | --- | --- |
| O=C(NCc1ccn(CCF)n1)NC12CC3CC(CC(C3)C1)C2 [3a, 1-Adamantyl-3-{[1-(2-fluoroethyl)-1H-pyrazol-3-yl]methyl}urea] | 440 to 450 µM | 7.99 | – | – |
| O=C(NCc1ccn(CC(F)F)n1)NC12CC3CC(CC(C3)C1)C2 [3b, 1-Adamantyl-3-{[1-(2,2-difluoroethyl)-1H-pyrazol-3-yl]methyl}urea] | 300 to 310 µM | 7.92 | – | – |
| O=C(NCc1ccn(CC(F)(F)F)n1)NC12CC3CC(CC(C3)C1)C2 [3c, 1-Adamantyl-3-{[1-(2,2,2-trifluoroethyl)-1H-pyrazol-3-yl]methyl}urea] | 390 to 400 µM | 8.02 | – | – |
| O=C(NCc1ccn(C(F)F)n1)NC12CC3CC(CC(C3)C1)C2 [3d, 1-Adamantyl-3-[(1-difluoromethyl-1H-pyrazol-3-yl)methyl]urea] | 670 to 680 µM | 8.06 | – | – |
| Cn1nc(CNC(=O)NC23CC4CC(CC(C4)C2)C3)cc1C(F)(F)F [3e, 1-Adamantyl-3-[(1-metyl-5-trifluoromethyl-1H-pyrazol-3-yl)methyl]urea] | 160 to 170 µM | 8.00 | – | – |
| Cn1nc(CNC(=O)NC23CC4CC(CC(C4)C2)C3)c(Cl)c1Cl [3f, 1-Adamantyl-3-[(4,5-dichloro-1-methyl-1H-pyrazol-3-yl)methyl]urea] | 250 to 260 µM | 9.10 | – | – |
| O=C(NCc1ccn(CCF)n1)NCC12CC3CC(CC(C3)C1)C2 [4a, 1-[(Adamantan-1-yl)methyl]-3-{[1-(2-fluoroethyl)-1H-pyrazol-3-yl]methyl}urea] | – | – | 650 to 660 µM (≈ 217 to 221 µg/mL) | 7.86 |
| O=C(NCc1ccn(CC(F)F)n1)NCC12CC3CC(CC(C3)C1)C2 [4b, 1-[(Adamantan-1-yl)methyl]-3-{[1-(2,2-difluoroethyl)-1H-pyrazol-3-yl]methyl}urea] | – | – | 270 to 280 µM (≈ 95.2 to 98.7 µg/mL) | 7.56 |
| O=C(NCc1ccn(CC(F)(F)F)n1)NCC12CC3CC(CC(C3)C1)C2 [4c, 1-[(Adamantan-1-yl)methyl]-3-{[1-(2,2,2-trifluoroethyl)-1H-pyrazol-3-yl]methyl}urea] | – | – | 740 to 750 µM (≈ 274 to 278 µg/mL) | 8.14 |
| O=C(NCc1ccn(C(F)F)n1)NCC12CC3CC(CC(C3)C1)C2 [4d, 1-[(Adamantan-1-yl)methyl]-3-[(1-difluoromethyl-1H-pyrazol-3-yl)methyl]urea] | – | – | 570 to 580 µM (≈ 193 to 196 µg/mL) | 7.82 |
| Cn1nc(CNC(=O)NCC23CC4CC(CC(C4)C2)C3)cc1C(F)(F)F [4e, 1-[(Adamantan-1-yl)methyl]-3-[(1-metyl-5-trifluoromethyl-1H-pyrazol-3-yl)methyl]urea] | 160 to 170 µM | 7.65 | – | – |
| Cn1nc(CNC(=O)NCC23CC4CC(CC(C4)C2)C3)c(Cl)c1Cl [4f, 1-[(Adamantan-1-yl)methyl]-3-[(4,5-dichloro-1-methyl-1H-pyrazol-3-yl)methyl]urea] | – | – | 120 to 130 µM (≈ 44.6 to 48.3 µg/mL) | 8.92 |

Source: paper PMC10457016 (Journal of fluorine chemistry, 2023)
